Data on 15 molecules can be found in ChEMBL document CHEMBL5370571, “α-Synuclein Aggregation Inhibitory and Antiplasmodial Activity of Constituents from the Australian Tree Eucalyptus cloeziana” (J Nat Prod, 2023).

Data set [1] in a line: Selectivity index, ratio of IC50 for cytotoxicity against HEK293 cells to IC50 for antiplasmodial activity against ring stage drug-sensitive Plasmodium falciparum 3D7. Format: toxicity, cell-based. Conditions: human, HEK293 cells versus ring stage Plasmodium falciparum 3D7; read-out: Ratio IC50.
For data set [2], the system named is Plasmodium falciparum. Put plainly: Antiplasmodial activity against ring stage drug-sensitive Plasmodium falciparum 3D7 assessed as inhibition of parasite growth incubated for 72 hrs by DAPI staining based assay. Format: functional, organism-based. To be noted: 3D7, 72 h.
Another data set relates to HEK293. In words: Cytotoxicity against HEK293 cells assessed as reduction in cell viability at 80 uM measured after 72 hrs by resazurin dye based fluorescence assay relative to control. In kind it is toxicity. To be noted: human, hek293, 72 h. On the technique in general: The colour change of resazurin is a common sign of viable cells or microbes.
The target of data set [3] is Alpha-synuclein (Homo sapiens) (UniProt P37840). Put plainly: Binding affinity to human alpha-synuclein expressed in Escherichia coli BL21 (DE3) at 100 uM incubated for 3 hrs by ETD Q-TOF ((+) HRESIMS) analysis.
Data set [4] deals with Plasmodium falciparum. In words: Antiplasmodial activity against ring stage drug-sensitive Plasmodium falciparum 3D7 assessed as inhibition of parasite growth at 40 uM incubated for 72 hrs by DAPI staining based assay. In kind it is functional, organism-based.
A short description of data set [5]: Cytotoxicity against HEK293 cells assessed as reduction in cell viability measured after 72 hrs by resazurin dye based fluorescence assay. In kind it is toxicity. Conditions: human.
Data set [6] concerns Plasmodium falciparum. In words: Antiplasmodial activity against Plasmodium falciparum 3D7 assessed as inhibition of parasite growth. Format: functional, organism-based.
The test system of a further data set is Pseudomonas aeruginosa. In words: Antibacterial activity against Pseudomonas aeruginosa ATCC 27853 at 64 ug/mL incubated for 18 hrs by resazurin dye based fluorescence assay. Format: functional, organism-based. To be noted: dose 64.0 µg/ml.
Data set [7] has as its system Staphylococcus aureus. Put plainly: Antibacterial activity against methicillin-resistant Staphylococcus aureus ATCC 43300 at 64 ug/mL incubated for 16 to 18 hrs by resazurin dye based fluorescence assay. Format: functional, organism-based. To be noted: dose 64.0 µg/ml, time 16-18 hrs.
In data set [8] the test system is Staphylococcus aureus. In words: Antibacterial activity against methicillin-susceptible Staphylococcus aureus ATCC 25923 at 64 ug/mL incubated for 16 to 18 hrs by resazurin dye based fluorescence assay. Format: functional, organism-based. To be noted: dose 64.0 µg/ml, time 16-18 hrs.
The target of data set [9] is Alpha-synuclein (Homo sapiens) (UniProt P37840). In words: Inhibition of human alpha-synuclein aggregation expressed in Escherichia coli BL21 (DE3) at 10:1 compound to protein molar ratio measured after 36 hrs by thioflavin T fluorescence assay relative to control. To be noted: concentration not given here.
Data set [10] has the same target. Put plainly: Inhibition of human alpha-synuclein aggregation expressed in Escherichia coli BL21 (DE3) at 400 uM measured after 36 hrs by thioflavin T fluorescence assay.

The source made the active and inactive calls. The calls are words filed in the database; no cut-off is given here. Bounds are passed on as bounds.

For `CCc1nc(N)nc(N)c1-c1ccc(Cl)cc1` [PYRIMETHAMINE], in data set [1], the selectivity ratio is 588. The IC50 (as a rule, the concentration needed to halve the response being measured) in the data set on Plasmodium falciparum [2] stood at 17 nM. Besides, the Activity in the data set on HEK293 is 31%.
In the case of `CC1(C)C=C2C(=O)C(C)(C)C(=O)C(C)(C)[C@@]2(O)OO1`, the outcome in [3] was inactive.
In the case of `CC(C)CC[C@]1(O)[C@H](O)C(C)(C)[C@@H](O)C(C)(C)[C@@H]1O`, the outcome in the data set with Plasmodium falciparum [4] was inactive.
Consider `COc1ccc(C[C@H](N)C(=O)N[C@H]2[C@@H](O)[C@H](n3cnc4c(N(C)C)ncnc43)O[C@@H]2CO)cc1` [PUROMYCIN], for which, in [1], the selectivity ratio was 9.2. Moreover, the IC50 at 72 h in data set [5] came out at 837 nM. The IC50 with Plasmodium falciparum [2] amounted to 91 nM.
For the molecule `CC(C)CC(=O)c1c(O)c2c(c3c1O[C@@]1(C(C)C)OC4=C(C(=O)C(C)(C)C(=O)C4(C)C)[C@@H]31)OC1=C(C(=O)C(C)(C)C(=O)C1(C)C)[C@H]2CC(C)C`, in the data set on Plasmodium falciparum [6], the IC50 was 1000 nM.
`CC(C)=CC(=O)[C@]1(O)[C@@H](O)C(C)(C)C(=O)C1(C)C`: the result in data set [3] was inactive.
On to `CC(C)C[C@@]1(O)C(=O)C(C)(C)C(=O)C(C)(C)[C@H]1OC(=O)C(C)C`, for which, in [1], the selectivity ratio is > 12.1. Moreover, the IC50 with Plasmodium falciparum [2] stood at 6600 nM. Besides, the result (with Pseudomonas aeruginosa; with Staphylococcus aureus [7]; in the data set with Staphylococcus aureus [8]; in data set [3]) was inactive. Also, the Activity entry with HEK293 is “Non-Toxic”.
As to `CC(C)=C[C@@]1(O)C(=O)C(C)(C)C(=O)C(C)(C)[C@H]1OC(=O)C(C)C`, the selectivity ratio in [1] was > 5. In addition, the IC50 in the data set on Plasmodium falciparum [2] turned out to be 16000 nM. Further, the result (with Pseudomonas aeruginosa; in the data set on Staphylococcus aureus [7]; with Staphylococcus aureus [8]; in data set [3]) was inactive. Moreover, the Activity entry in the data set with HEK293 is “Non-Toxic”.
For the molecule `CC(C)C[C@]1(O)C(O)=C([C@@H](C2=C(O)C(C)(C)C(=O)C(C)(C)C2=O)C(C)C)C(=O)C([C@H](C2=C(O)C(C)(C)C(=O)C(C)(C)C2=O)C(C)C)=C1O`, the selectivity ratio in [1] was > 8.4. Moreover, the inhibition (as a rule, the relative decrease from the control value, in per cent) in [9] amounted to 39.5%. The inhibition entry in data set [10] is “inactive”. Also, the IC50 in the data set on Plasmodium falciparum [2] was determined as 9500 nM. Besides, the result in the data set with Pseudomonas aeruginosa, in the data set on Staphylococcus aureus [7] and with Staphylococcus aureus [8] was inactive. The Activity result with HEK293 is given as “Non-Toxic”. The outcome in data set [3] was Active.
For the molecule `C[C@H]1[C@H](OC(=O)CCC(=O)O)O[C@@H]2O[C@@]3(C)CC[C@H]4[C@H](C)CC[C@@H]1[C@@]24OO3` [ARTESUNATE], the selectivity ratio in data set [1] was 1750. In addition, in the data set on Plasmodium falciparum [2], the IC50 was determined as 1.4 nM. Moreover, the Activity in the data set with HEK293 was 20%.
Consider `CC1(C)CC2=C(OO1)C(C)(C)C(=O)C(C)(C)C2=O`, for which the Activity entry in the data set on HEK293 is “Non-Toxic”. Also, the result in [3] was inactive.
Consider `O=C1C=C(c2ccc(O)cc2)[C@@]2(O1)O[C@@]1(OC(=O)C=C1c1ccc(O)cc1)C(c1ccc(O)cc1)=C2c1ccc(O)cc1`, for which, in the data set with Plasmodium falciparum [6], the IC50 was found to be 5100 nM.
On the same count and under the same terms, the same measure for `CC(C)CC(=O)c1c(O)c2c(c3c1O[C@@]1(C(C)C)OC4=C(C(=O)C(C)(C)C(=O)C4(C)C)[C@@H]31)OC1=C(C(=O)C(C)(C)C(=O)C1(C)C)[C@@H]2CC(C)C`: > 40000 nM.
On to `CC(=O)O[C@@H]1C(C)(C)C(=O)C(C)(C)C(=O)[C@]1(O)CC(C)C`, for which, in data set [3], the outcome was inactive.
For `CC(C)(O)[C@@H]1CC[C@@]2(C)CCC[C@@](C)(O)[C@@H]2C1`, the result in [3] was inactive.
